# Data from EPA's ToxRefDB 2.
# Key:
# rat [1] = details: Subchronic oral toxicity in rodents, wistar, Feed, dose end: 90 day, group: systemic, systemic / clinical chemistry / urea nitrogen / urea + systemic / hematology / blood clotting / blood clotting - clotting time + systemic / …
# rabbit = details: Prenatal developmental toxicity study, new zealand white, Oral, Gavage/Intubation, dose end: 19 GD
# rat [2] = details: Subchronic oral toxicity in rodents, other, Feed, dose end: 90 day, group: systemic
# rat [3] = details: Multigenerational reproductive toxicity study, sprague dawley, Oral, Feed, dose end: 3 generation
# mouse [4] = details: Combined chronic toxicity/carcinogenicity; b6c3f1; Oral; Feed; dose end: 107 week; group: systemic; systemic / pathology microscopic / liver / hepatocyte, multinucleate
# rat [5] = details: Developmental neurotoxicity study, sprague dawley, Oral, Feed, dose end: 72 PND, group: cannot be grouped
# mouse [6] = details: Developmental neurotoxicity study; other; Oral; Feed; dose end: 77 PND; group: cannot be grouped; systemic / pathology microscopic / brain / [other] + systemic / pathology microscopic / brain / depletion
# rat [7] = details: Developmental neurotoxicity study; sprague dawley; Oral; [Not Specified]; dose end: 87 PND; group: cannot be grouped; systemic / in life observation / clinical signs / abnormal posture
# mouse [8] = details: Carcinogenicity; b6c3f1; Oral; Feed; dose end: 80 week; group: systemic; systemic / pathology microscopic / liver / hepatocellular carcinoma + systemic / in life observation / clinical signs / alopecia + systemic…
# rat [9] = details: Carcinogenicity, other, Oral, Feed, dose end: 80 week, group: systemic
# rat [10] = details: Developmental neurotoxicity study; sprague dawley; Oral; Gavage/Intubation; dose end: 91 PND; group: cannot be grouped; systemic / in life observation / body weight / offspring (pup) weight
# mouse [11] = details: Subchronic oral toxicity in rodents, b6c3f1, Feed, dose end: 14 week
# mouse [12] = details: Carcinogenicity; b6c3f1; Oral; Feed; dose end: 105 week; group: systemic; systemic / pathology microscopic / liver / eosinophilic focus + systemic / pathology microscopic / liver / hypertrophy + systemic / …
# rat [13] = details: Subchronic oral toxicity in rodents, fischer, Feed, dose end: 14 week, group: systemic, systemic / organ weight / liver / absolute + systemic / organ weight / liver / relative to body weight + systemic / hematology / platelet / …
# rat [14] = details: Carcinogenicity; fischer; Oral; Feed; dose end: 104 week; group: systemic; systemic / pathology microscopic / liver / hypertrophy + systemic / pathology microscopic / liver / vacuolization cytoplasmic + systemic / …
# rat [15] = details: Subchronic oral toxicity in rodents, sprague dawley, Feed, dose end: 13 week, group: systemic, systemic / in life observation / body weight / body weight + systemic / in life observation / body weight / body weight gain + systemic / in…
# dog = details: Chronic toxicity; beagle; Oral; Feed; dose end: 24 month; group: systemic; systemic / in life observation / body weight / body weight gain + systemic / in life observation / food consumption / food efficiency + …
# rat [16] = details: Multigenerational reproductive toxicity study, sprague dawley, Oral, Gavage/Intubation, dose end: 2 generation
# rat [17] = details: Prenatal developmental toxicity study, wistar, Oral, Gavage/Intubation, dose end: 19 GD
# rat [18] = details: Combined chronic toxicity/carcinogenicity, sprague dawley, Oral, Feed, dose end: 24 month, group: systemic
# mouse [19] = details: Carcinogenicity; cd1; Oral; [Not Specified]; dose end: 18 month; group: systemic; systemic / in life observation / body weight / body weight + systemic / in life observation / body weight / body weight gain
# rat [20] = details: Multigenerational reproductive toxicity study, sprague dawley, Oral, Feed, dose end: 2 generation
# [21] = group: developmental, systemic / in life observation / body weight / fetal weight
# [22] = group: maternal, systemic / in life observation / mortality / mortality + reproductive / reproductive performance / aborted / aborted + systemic / in life …
# [23] = systemic / in life observation / food consumption / food consumption
# [24] = systemic / in life observation / food consumption / food consumption + systemic / in life observation / body weight / body weight
# [25] = group: offspring, developmental / developmental landmark / vaginal opening / vaginal opening + systemic / in life observation / body weight / offspring (pup) …
# [26] = group: parental, systemic / in life observation / body weight / body weight + systemic / in life observation / body weight / body weight gain + systemic / …
# [27] = group: reproductive, reproductive / reproductive performance / implantations / implantations + reproductive / offspring survival early / litter size / litter …
# [28] = systemic / in life observation / body weight / body weight + systemic / in life observation / body weight / body weight gain + systemic / in…
# [29] = systemic / in life observation / body weight / body weight + systemic / in life observation / clinical signs / fur (altered appearance) + …
# [30] = systemic / in life observation / clinical signs / fur (altered appearance) + systemic / in life observation / clinical signs / palpable mass…
# [31] = group: maternal, reproductive / reproductive performance / estrous cycle / length
# [32] = group: systemic, systemic / in life observation / clinical signs / ataxia + systemic / in life observation / clinical signs / lethargy + systemic / in life …
# [33] = group: offspring, developmental / offspring survival late / lactation index / lactation index + developmental / offspring survival late / viability index / …
# [34] = group: parental, systemic / in life observation / clinical signs / salivation + systemic / in life observation / body weight / body weight gain + systemic / …
# [35] = group: reproductive, reproductive / offspring survival early / litter size / litter size
# [36] = group: developmental, developmental / developmental malformation / bone / incomplete ossification
# [37] = group: developmental, developmental / developmental malformation / bone / incomplete ossification + systemic / in life observation / body weight / fetal weight
# [38] = group: maternal, systemic / in life observation / mortality / mortality + reproductive / offspring survival early / dead fetuses / dead fetuses
# [39] = group: maternal, systemic / in life observation / mortality / mortality + reproductive / reproductive performance / postimplantation loss / postimplantation …
# [40] = group: parental, systemic / in life observation / body weight / body weight
# [41] = group: reproductive, reproductive / reproductive performance / gestational length / gestational length
smiles,measurement,setting,value
"NC(=O)c1c(Cl)cccc1Cl [2,6-Dichlorobenzamide]",LEL,rat [1],49 mg/kg/day
same,LOAEL,rat [1],49 mg/kg/day
same,NEL,rat [1],14 mg/kg/day
same,NOAEL,rat [1],14 mg/kg/day
same,LEL,rabbit; [21],90 mg/kg/day
same,LOAEL,rabbit; [21],90 mg/kg/day
same,NEL,rabbit; [21],30 mg/kg/day
same,NOAEL,rabbit; [21],30 mg/kg/day
same,LOAEL,"rabbit; group: maternal, systemic / in life observation / mortality / mortality",30 mg/kg/day
same,NEL,rabbit; [22],10 mg/kg/day
same,NOAEL,rabbit; [22],10 mg/kg/day
same,LEL,"rabbit; group: maternal, systemic / in life observation / mortality / mortality + systemic / in life observation / clinical signs / moribundity",30 mg/kg/day
CC(C)(c1ccc(O)cc1)c1ccc(O)cc1 [Bisphenol A],LEL,rat [2]; [23],5 mg/kg/day
same,NEL,rat [2]; [23],< 5 mg/kg/day
same,LOAEL,rat [2]; [24],> 25 mg/kg/day
same,NOAEL,rat [2]; [24],≥ 25 mg/kg/day
same,LEL,rat [3]; [25],500 mg/kg/day
same,LOAEL,rat [3]; [25],> 500 mg/kg/day
same,NEL,rat [3]; [25],50 mg/kg/day
same,NOAEL,rat [3]; [25],≥ 500 mg/kg/day
same,LEL,"rat [3]; group: parental, systemic / in life observation / body weight / body weight + systemic / in life observation / body weight / body weight gain",50 mg/kg/day
same,LOAEL,rat [3]; [26],> 500 mg/kg/day
same,NEL,rat [3]; [26],5 mg/kg/day
same,NOAEL,rat [3]; [26],≥ 500 mg/kg/day
same,NEL,"rat [3]; group: reproductive, reproductive / reproductive performance / implantations / implantations",50 mg/kg/day
same,LEL,rat [3]; [27],500 mg/kg/day
same,LOAEL,rat [3]; [27],> 500 mg/kg/day
same,NOAEL,rat [3]; [27],≥ 500 mg/kg/day
same,LEL,mouse [4],150 mg/kg/day
same,LOAEL,mouse [4],> 750 mg/kg/day
same,NEL,mouse [4],< 150 mg/kg/day
same,NOAEL,mouse [4],≥ 750 mg/kg/day
same,LOAEL,rat [5]; systemic / in life observation / body weight / body weight + systemic / in life observation / body weight / body weight gain,56.4 mg/kg/day
same,LEL,rat [5]; [28],56.4 mg/kg/day
same,NEL,rat [5]; [28],5.85 mg/kg/day
same,NOAEL,rat [5]; [28],5.85 mg/kg/day
same,LEL,mouse [6],0.03 mg/kg/day
same,LOAEL,mouse [6],> 2000 mg/kg/day
same,NEL,mouse [6],< 0.03 mg/kg/day
same,NOAEL,mouse [6],≥ 2000 mg/kg/day
same,LEL,rat [7],0.04 mg/kg/day
same,LOAEL,rat [7],> 0.4 mg/kg/day
same,NEL,rat [7],< 0.04 mg/kg/day
same,NOAEL,rat [7],≥ 0.4 mg/kg/day
ClC1=C(Cl)[C@]2(Cl)C3C(Cl)C(Cl)CC3[C@@]1(Cl)C2(Cl)Cl (some centres undefined) [Chlordane],LEL,mouse [8],4.49 mg/kg/day
same,LOAEL,mouse [8],> 8.43 mg/kg/day
same,NEL,mouse [8],< 4.49 mg/kg/day
same,NOAEL,mouse [8],≥ 8.43 mg/kg/day
same,LOAEL,rat [9]; [29],> 12.1 mg/kg/day
same,NOAEL,rat [9]; [29],≥ 12.1 mg/kg/day
same,LEL,rat [9]; [30],6.04 mg/kg/day
same,NEL,rat [9]; [30],< 6.04 mg/kg/day
CCC1(c2ccccc2)C(=O)NCNC1=O [Primidone],LEL,rat [10],40 mg/kg/day
same,LOAEL,rat [10],> 80 mg/kg/day
same,NEL,rat [10],< 40 mg/kg/day
same,NOAEL,rat [10],≥ 80 mg/kg/day
same,LEL,mouse [11]; [31],220 mg/kg/day
same,LOAEL,mouse [11]; [31],> 1100 mg/kg/day
same,NEL,mouse [11]; [31],120 mg/kg/day
same,NOAEL,mouse [11]; [31],≥ 1100 mg/kg/day
same,LOAEL,mouse [11]; [32],> 1000 mg/kg/day
same,NEL,mouse [11]; [32],50 mg/kg/day
same,NOAEL,mouse [11]; [32],≥ 1000 mg/kg/day
same,LEL,"mouse [11]; group: systemic, systemic / organ weight / liver / absolute + systemic / organ weight / liver / relative to body weight + systemic / pathology microscopic / …",100 mg/kg/day
same,LEL,mouse [12],25 mg/kg/day
same,LOAEL,mouse [12],25 mg/kg/day
same,NEL,mouse [12],< 25 mg/kg/day
same,NOAEL,mouse [12],< 25 mg/kg/day
same,LEL,rat [13],20 mg/kg/day
same,LOAEL,rat [13],> 400 mg/kg/day
same,NEL,rat [13],< 20 mg/kg/day
same,NOAEL,rat [13],≥ 400 mg/kg/day
same,LEL,rat [14],25 mg/kg/day
same,LOAEL,rat [14],25 mg/kg/day
same,NEL,rat [14],< 25 mg/kg/day
same,NOAEL,rat [14],< 25 mg/kg/day
CCCOC(=O)NCCCN(C)C.Cl [Propamocarb hydrochloride],LEL,rat [15],716 mg/kg/day
same,LOAEL,rat [15],716 mg/kg/day
same,NEL,rat [15],363 mg/kg/day
same,NOAEL,rat [15],363 mg/kg/day
same,LEL,dog,22.8 mg/kg/day
same,LOAEL,dog,22.8 mg/kg/day
same,NEL,dog,< 22.8 mg/kg/day
same,NOAEL,dog,< 22.8 mg/kg/day
same,LEL,rat [16]; [33],1000 mg/kg/day
same,LOAEL,rat [16]; [33],1000 mg/kg/day
same,NEL,rat [16]; [33],200 mg/kg/day
same,NOAEL,rat [16]; [33],200 mg/kg/day
same,LEL,rat [16]; [34],200 mg/kg/day
same,LOAEL,rat [16]; [34],1000 mg/kg/day
same,NEL,rat [16]; [34],50 mg/kg/day
same,NOAEL,rat [16]; [34],200 mg/kg/day
same,LEL,rat [16]; [35],1000 mg/kg/day
same,LOAEL,rat [16]; [35],1000 mg/kg/day
same,NEL,rat [16]; [35],200 mg/kg/day
same,NOAEL,rat [16]; [35],200 mg/kg/day
same,LEL,rat [17]; [36],740 mg/kg/day
same,LOAEL,rat [17]; [36],740 mg/kg/day
same,NEL,rat [17]; [37],221 mg/kg/day
same,NOAEL,rat [17]; [37],221 mg/kg/day
same,LEL,rat [17]; [38],740 mg/kg/day
same,LOAEL,rat [17]; [38],740 mg/kg/day
same,NEL,rat [17]; [39],221 mg/kg/day
same,NOAEL,rat [17]; [39],221 mg/kg/day
same,LEL,rat [18]; [28],682 mg/kg/day
same,LOAEL,rat [18]; [28],682 mg/kg/day
same,NOAEL,rat [18]; [28],84 mg/kg/day
same,NEL,rat [18]; systemic / pathology microscopic / brain / vacuolization,84 mg/kg/day
same,LEL,mouse [19],95 mg/kg/day
same,LOAEL,mouse [19],95 mg/kg/day
same,NEL,mouse [19],12 mg/kg/day
same,NOAEL,mouse [19],12 mg/kg/day
same,LOAEL,"rat [20]; group: offspring, systemic / in life observation / body weight / offspring (pup) weight",485 mg/kg/day
same,NOAEL,"rat [20]; group: offspring, systemic / in life observation / body weight / offspring (pup) weight + systemic / organ weight / brain / relative to body weight + systemic…",75.4 mg/kg/day
same,LEL,"rat [20]; group: offspring, systemic / organ weight / brain / absolute",85.3 mg/kg/day
same,NEL,"rat [20]; group: offspring, systemic / organ weight / brain / absolute + systemic / in life observation / body weight / offspring (pup) weight + systemic / organ weight…",14.2 mg/kg/day
same,LEL,rat [20]; [40],407 mg/kg/day
same,LOAEL,rat [20]; [40],407 mg/kg/day
same,NEL,rat [20]; [40],65.4 mg/kg/day
same,NOAEL,rat [20]; [40],65.4 mg/kg/day
same,LEL,rat [20]; [41],467 mg/kg/day
same,LOAEL,rat [20]; [41],> 467 mg/kg/day
same,NEL,rat [20]; [41],76.8 mg/kg/day
same,NOAEL,rat [20]; [41],≥ 467 mg/kg/day
